From article PMC11477298, “Small Molecules Inducing Autophagic Degradation of Expanded Polyglutamine Protein through Interaction with Both Mutant ATXN3 and LC3” (International Journal of Molecular Sciences, 2024) come the findings set out here.

The test system of the data set is human ATXN3-Q75-GFP SH-SY5Y cells. Nature of the data set: MTT compound cytotoxicity assay. The format is cell-based. Particulars: 0.1–100 μM compound, viability analyzed the next day, n = 3. On the procedure:
For the compound cytotoxicity assay, ATXN3-Q75-GFP SY5Y cells (2 × 10^4) were plated into 96-well dishes, grown for 20 h, and treated with 0.1–100 μM test compounds. After 1 day, 3-(4,5-dimethylthiazol-2-yl)-2,5-diphenyltetrazolium bromide (MTT, 5 mg/mL) (Sigma-Aldrich, St. Louis, MO, USA) was added to the cells and incubated for 3 h at 37 °C. Lysis buffer (10% Triton X-100, 0.1 N HCl, 18% isopropanol) was then added to dissolve the insoluble formazan crystals. The absorbance of the purple-colored solution was measured at optical density (OD) 570 nm by using a FLx800 fluorescence microplate spectrophotometer (Bio-Tek, Winooski, VT, USA). The half-maximal inhibitory concentration (IC50) was calculated through the construction of a dose–response curve.

Where only a bound is given, the exact number is not on record here.

Compound `CC(=O)/C(=C\c1ccccc1[N+](=O)[O-])Cc1c[nH]c2ccccc12` [NC009-1] yielded an IC50 above 100 µM.
In turn, `CC(=O)/C(=C\c1ccccc1[N+](=O)[O-])Cc1c(C)[nH]c2ccccc12` [NC009-2] had an IC50 above 100 µM.
